By inhibition is commonly meant the relative decrease from the control value, in per cent. Usually IC50 stands for the concentration at which inhibition is half-maximal.

One assay relates to MCF-7. Put plainly: Two-dose antiproliferative screening, SRB assay, MCF-7. The class given is cell-based. The conditions noted are these: triplicates; for Growth Inhibition (%) MCF-7 1 μM Average: 72 h; for inhibition at 1 µM / inhibition at 10 µM: Homo sapiens, MCF7, 72 h; for inhibition at 1 µM: read-out: Growth Inhibition (%) MCF-7 1 μM Average; for inhibition at 10 µM: read-out: Growth Inhibition (%) MCF-7 10 μM Average. As for the experimental part: MCF-7(breast adenocarcinoma), PC-3 (prostate cancer) and COLO-205 (colorectal cancer) were obtained from Nawah Scientific inc., (Mokatam, Cairo, Egypt). Cells were maintained in Dulbecco’s Modified Eagle’s media (DMEM media) supplemented with […] of streptomycin, 100 units/mL of penicillin and 10% of heat-inactivated fetal bovine serum in humidified, 5% (v/v) CO2 atmosphere at 37 °C.
Cell viability was assessed by the sulforhodamine B (SRB) assay. Aliquots of cell suspension (5 × 10^3 cells, 100 μL) were transferred into 96 well plates and incubated in complete media for 24 h. Cells were treated with another aliquot media (100 μL) containing compounds 3a–f, 4a–f, 6a–f, 7a–f, 9a–b at concentrations of 1 and 10 μM). After 72 h of drug exposure, cells were fixed by replacing media with trichloroacetic acid (TCA, 10%, 150 μL) and incubated at 4 °C for 1 h. The TCA solution was removed, and the cells were washed five times with distilled water. Aliquots of SRB solution (0.4%w/v, 70 μL) were added and incubated in a dark place at room temperature for 10 min. Plates were washed three times with 1% acetic acid and allowed to air dry overnight. Then, a solution of TRIS base and TRIS HCl (TRIS buffer, 10 mM, 150 μL) was added to dissolve protein bound SRB stain. The absorbance was measured at 540 nm using BMGLABTECH®–FLUOstar omega micro-plate reader (Ortenberg, Germany).

A further assay deals with T1, EGFR (Homo sapiens, UniProt P00533).
T1 construct: enough purified recombinant EGFR enzyme, EGFR substrate, ATP, and kinase assay buffer; purchased Sigma Aldrich
T1 sequence (P00533 25-1210): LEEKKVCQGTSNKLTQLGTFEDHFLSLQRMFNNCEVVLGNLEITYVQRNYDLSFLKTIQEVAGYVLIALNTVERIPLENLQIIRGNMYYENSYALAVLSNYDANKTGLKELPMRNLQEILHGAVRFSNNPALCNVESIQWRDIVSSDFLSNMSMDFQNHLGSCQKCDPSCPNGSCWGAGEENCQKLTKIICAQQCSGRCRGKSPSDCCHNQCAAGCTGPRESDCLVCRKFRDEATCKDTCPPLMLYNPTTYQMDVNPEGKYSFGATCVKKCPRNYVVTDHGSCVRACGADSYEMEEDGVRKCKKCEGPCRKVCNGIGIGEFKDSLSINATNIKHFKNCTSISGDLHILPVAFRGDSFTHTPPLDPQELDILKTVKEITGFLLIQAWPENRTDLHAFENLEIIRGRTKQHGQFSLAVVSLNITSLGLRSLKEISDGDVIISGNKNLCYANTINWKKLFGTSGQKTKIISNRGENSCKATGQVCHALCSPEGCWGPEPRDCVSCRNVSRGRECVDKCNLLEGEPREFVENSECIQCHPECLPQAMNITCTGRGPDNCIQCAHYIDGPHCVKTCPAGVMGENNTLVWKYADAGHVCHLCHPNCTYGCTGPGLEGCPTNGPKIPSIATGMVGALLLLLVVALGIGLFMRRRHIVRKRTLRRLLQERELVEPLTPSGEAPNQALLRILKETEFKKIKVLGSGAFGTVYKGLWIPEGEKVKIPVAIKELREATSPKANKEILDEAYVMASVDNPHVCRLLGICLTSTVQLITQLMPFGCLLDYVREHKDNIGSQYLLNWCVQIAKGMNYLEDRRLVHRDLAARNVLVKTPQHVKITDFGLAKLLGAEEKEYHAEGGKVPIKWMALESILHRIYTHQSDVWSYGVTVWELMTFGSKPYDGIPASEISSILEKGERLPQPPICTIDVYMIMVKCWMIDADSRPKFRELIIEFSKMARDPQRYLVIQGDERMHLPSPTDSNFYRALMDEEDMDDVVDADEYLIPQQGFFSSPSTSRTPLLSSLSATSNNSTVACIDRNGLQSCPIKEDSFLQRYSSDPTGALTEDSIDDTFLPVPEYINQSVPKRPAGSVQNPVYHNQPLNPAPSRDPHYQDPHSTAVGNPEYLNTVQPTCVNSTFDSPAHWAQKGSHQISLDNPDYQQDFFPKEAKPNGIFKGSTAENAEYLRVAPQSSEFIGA
Put plainly: EGFR kinase assay kit (Kinase-Glo MAX). The assay is classed as biochemical. As to conditions: EGFR-TK kinase kit; read-out: EGFR Inhibition IC50 (converted). As for the experimental part:
The EGFR Kinase Assay Kit (Sigma Aldrich, St. Louis, […], USA) is designed to measure EGFR Kinase activity for screening and profiling applications using Kinase-Glo® MAX as a detection reagent. The EGFR Kinase Assay Kit (Sigma Aldrich, St. Louis, […], USA) comes in a convenient 96-well format, with enough purified recombinant EGFR enzyme, EGFR substrate, ATP, and kinase assay buffer for 100 enzyme reactions. The master mixture (25 μL per well) was prepared out of Kinase assay buffer (6 μL), ATP (500 μM, 1 μL), PTK substrate (50×, 1 μL) and water (17 μL) and added to each well. Inhibitor solution was made by dissolving 4b in a liquid labelled” inhibitor buffer”. An inhibitor solution (5 μL) was then added to each well, labelled as “Test Inhibitor”. For “Positive Control” and “Blank”, add 5 μL inhibitor buffer). EGFR was thawed on ice. Its tube was spun briefly to recover the full content of the tube. The enzyme was diluted with 1× Kinase assay buffer enzyme to 1 ng/μL. The reaction was initiated by adding 20 μL of diluted EGFR enzyme to the wells designated “Positive Control” and “Test Inhibitor Control”. The plate was incubated at 30 °C for 40 min. After the 40-min reaction, the Kinase-Glo Max (50 μL) reagent was added to each well. The plate was covered with aluminum foil, incubated at room temperature for 15 min and the luminescence was measured using the microplate reader.
On the technique in general: Kinase-Glo measures the ATP left after a reaction by luminescence.

The target in another assay is CK1. Put plainly: Casein Kinase 1 (CK1) 33P-ATP assay. The assay is classed as biochemical. As for the experimental part:
The active CK1, kinase assay buffer, substrate solution and kinase dilution buffer were thawed on ice (^33P-ATP assay Cocktail). In a precooled microcentrifuge tube, 10 μL of kinase solution, 5 μL of substrate solution and 5 μL of cold water (4 °C) were added, then a blank control was set up. Each reaction was initiated by adding 5 μL of ^33P-ATP assay cocktail then incubated for 15 min in a water bath (30 °C), then 20 μL of the reaction mixture were spotted onto an individually precut strip of phosphocellulose P81 paper and allowed to air dry followed by washing using 1% H2SO4 with constant gentle stirring. A radioactive control was set up then 5 μL of γ-^33P-ATP assay cocktail was spotted on P81 paper, the sample was allowed to air dry for 2 min then the radioactivity count was recorded.

Several values for one entry are separate records, joined by “and”; a condition that tells them apart may be missing. Equal entries are not always repeated. Where two headings read alike, the source gives them in different places. Marks after values point to notes of the source that are not given here.

Turning to `COc1cc(OC)c(/C=C2/C(=O)Nc3ccccc32)c(OC)c1` [Compound 4a, (E)-3-(2,4,6-trimethoxybenzylidene)indolin-2-one, reference compound], in the assay on MCF-7, the “Growth Inhibition (%) MCF-7 1 μM Average” value is given as 43.49 ^c %, the inhibition at 1 µM is 44% and the inhibition at 10 µM stood at 58.9%. Also, the IC50 on EGFR is 0.321 µM and 0.34 µM. Also, on CK1, the “CK 1 inhibition IC50 (as printed in μM in discussion)” value was 2.39 µM and the “Casein Kinase I Inhibition IC50” value was determined as 2.39 µg/mL. Moreover, the “Casein Kinase I Inhibition IC50” value on CK1 (IC261) is 2.39 (4a, IC261) μg/mL.

In the case of `COc1cc(OC)c(/C=C2/C(=O)Nc3cc(Cl)ccc32)c(OC)c1` [Compound 4b, (E)-6-chloro-3-(2,4,6-trimethoxybenzylidene)indolin-2-one], in the assay with MCF-7, the “Growth Inhibition (%) MCF-7 1 μM Average” value worked out at 45.3%, the inhibition at 1 µM came to 46% and the inhibition at 10 µM was 59.1%. Besides, the IC50 on EGFR is 0.549 µM. Further, the “Casein Kinase I Inhibition IC50” value at CK1 turned out to be 1.92 µg/mL.

For the origin of these results see paper PMC8620390, “New Multi-Targeted Antiproliferative Agents: Design and Synthesis of IC261-Based Oxindoles as Potential Tubulin, CK1 and EGFR Inhibitors” (Pharmaceuticals, 2021).
